According to patent publication US12509444B2, “Compounds and methods for CD73 modulation and indications therefor” (Plexxikon Inc., priority 2019, dated 2025):

What was measured:
[1] = target: T1, Human CD73 (amino acid residues 27-549) (Homo sapiens, UniProt P21589); test: CD73 enzymatic assay (luciferase-based indirect assay, CellTiter-Glo); format: biochemical; details: 0.4 nM CD73, 150 μM AMP, 1 hour at room temperature
T1 construct: Human CD73 (amino acid residues 27-549); His tag (N); made in house; host or cells: E. coli
T1 sequence (P21589 27-549): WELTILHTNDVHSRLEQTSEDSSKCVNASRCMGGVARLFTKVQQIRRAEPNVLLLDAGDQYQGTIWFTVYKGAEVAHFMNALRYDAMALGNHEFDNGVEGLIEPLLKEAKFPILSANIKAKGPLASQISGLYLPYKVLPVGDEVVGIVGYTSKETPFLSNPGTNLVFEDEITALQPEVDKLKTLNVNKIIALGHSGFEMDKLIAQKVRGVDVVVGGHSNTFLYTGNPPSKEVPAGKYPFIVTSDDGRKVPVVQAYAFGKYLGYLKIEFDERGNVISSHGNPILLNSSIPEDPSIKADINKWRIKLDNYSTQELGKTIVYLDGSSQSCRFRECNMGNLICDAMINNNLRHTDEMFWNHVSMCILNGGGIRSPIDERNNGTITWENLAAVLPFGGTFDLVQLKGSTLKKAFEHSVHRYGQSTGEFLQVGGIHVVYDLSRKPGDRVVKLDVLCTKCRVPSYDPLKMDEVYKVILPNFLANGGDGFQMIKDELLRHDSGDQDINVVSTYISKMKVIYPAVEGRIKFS
Procedure, shortened: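 Residual AMP inhibits luciferase, so luminescence reports CD73 turnover; read with CellTiter-Glo 2.0 plus 1 μM final ATP, 30 min. Reaction used 0.4 nM N-His CD73 (27-549, E. coli), 150 μM AMP, HEPES pH 7.4 with Tween 20, 1 h at room temperature. IC50 fitted by nonlinear regression.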

human CD73 = target: T2, human CD73 (Homo sapiens, UniProt P21589); test: Inhibitor activity against CD73 in cell based assay (CD73 expressing CHO-K1 cells); details: CHO-K1 cells expressing human CD73, 150 μM AMP, 4 hours of incubation; read-out: CHO-K1 CELL VARIANT: CD73 IC50
T2 construct: expressed in transfected cells
T2 sequence (P21589 27-549): T1 sequence (P21589 27-549)
Procedure: Determine Inhibitor Activity Against CD73 in Cell Based Assay
CD73 expressing CHO-K1 cell clones were generated upon stable transfection of a plasmid expressing human CD73 under the control of CMV promoter. Cells were selected in Ham's F-12K (Kaighn's) media supplemented with 10% fetal bovine serum and 1 mg/ml G418 at 37° C. in a humidified incubator supplied with 5% CO2. The assays were performed as follows. Cells were seeded in a 96 well plate in 50 μL of culture media at a density of 1×10^4 per well. Compound at a maximal concentration of 5 mM was serially diluted 1:3 in DMSO for a total of 8 point titration. A 2 μL aliquot of each dilution point was added to 248 μL culture media and 25 µL was added to each well, providing 10 μM compound at the maximum concentration point. AMP was diluted in culture media and 25 μL was added to each well with a final concentration of 150 μM. 4 wells containing 0.2% DMSO treated cells and AMP served as high controls and 4 wells containing media only with 0.2% DMSO and AMP served as low controls. After 4 hours of incubation, 20 μL of the supernatant was transferred to a 384 well plate. AMP level in supernatant was measured indirectly by adding 5 μL of CellTiter-Glo® 2.0 reagent and 5 μL of ATP with a final concentration of 1 μM. Following incubation of plate at room temperature for 30 minutes, luminescent signal was read on a Tecan plate reader. The percentage inhibition at individual concentrations relative to high and low controls was calculated. The data were analyzed by using nonlinear regression to generate IC50 values.

In the case of `N#CC1CCC(NC(=O)O[C@@H]2CCN(c3cn[nH]c(=O)c3Cl)C2)CC1` (stereo partly drawn) [P-0114, (R)-1-(5-chloro-6-oxo-1,6-dihydropyridazin-4-yl)pyrrolidin-3-yl (4-cyanocyclohexyl)carbamate], the IC50 [1] is reported as 0.001 to 10 µM and the IC50 (human CD73) is reported as 0.001 to 10 µM.
With `O=C(NC1CC2(CCC2)C1)O[C@@H]1CCN(c2cn[nH]c(=O)c2Cl)C1` [P-0115, (R)-1-(5-chloro-6-oxo-1,6-dihydropyridazin-4-yl)pyrrolidin-3-yl spiro[3.3]heptan-2-ylcarbamate] the IC50 [1] was 0.001 to 10 µM and the IC50 (human CD73) was 0.001 to 10 µM.
With `CS(=O)(=O)NC1CCC(NC(=O)O[C@@H]2CCN(c3cn[nH]c(=O)c3Cl)C2)CC1` (stereo partly drawn) [P-0116, (R)-1-(5-chloro-6-oxo-1,6-dihydropyridazin-4-yl)pyrrolidin-3-yl (4-(methylsulfonamido)cyclohexyl)carbamate] the IC50 [1] was 0.001 to 10 µM and the IC50 (human CD73) was 0.001 to 10 µM.
`O=C(NC1CC2CCC1O2)O[C@@H]1CCN(c2cn[nH]c(=O)c2Cl)C1` (stereo partly drawn) [P-0117, (R)-1-(5-chloro-6-oxo-1,6-dihydropyridazin-4-yl)pyrrolidin-3-yl (7-oxabicyclo[2.2.1]heptan-2-yl)carbamate] gave an IC50 [1] of 0.001 to 10 µM and an IC50 (human CD73) of 0.001 to 10 µM.
Compound `O=C(NC1(C2CC2)CC1)O[C@@H]1CCN(c2cn[nH]c(=O)c2Cl)C1` [P-0118, (R)-1-(5-chloro-6-oxo-1,6-dihydropyridazin-4-yl)pyrrolidin-3-yl [1,1′-bi(cyclopropan)]-1-ylcarbamate] has an IC50 [1] of 0.001 to 10 µM and an IC50 (human CD73) of 0.001 to 10 µM.
`O=C(NC1CC(O)C1)O[C@@H]1CCN(c2cn[nH]c(=O)c2Cl)C1` (stereo partly drawn) [P-0119, (R)-1-(5-chloro-6-oxo-1,6-dihydropyridazin-4-yl)pyrrolidin-3-yl (3-hydroxycyclobutyl)carbamate] gave an IC50 [1] of 0.001 to 10 µM and an IC50 (human CD73) of 0.001 to 10 µM.
In the case of `O=C(NC1CCN(C2CCCC2)CC1)O[C@@H]1CCN(c2cn[nH]c(=O)c2Cl)C1` [P-0121, (R)-1-(5-chloro-6-oxo-1,6-dihydropyridazin-4-yl)pyrrolidin-3-yl (1-cyclopentylpiperidin-4-yl)carbamate], the IC50 [1] is reported as 0.001 to 10 µM and the IC50 (human CD73) is reported as 0.001 to 10 µM.
In the case of `CC(C)N1CCC(NC(=O)O[C@@H]2CCN(c3cn[nH]c(=O)c3Cl)C2)CC1` [P-0122, (R)-1-(5-chloro-6-oxo-1,6-dihydropyridazin-4-yl)pyrrolidin-3-yl (1-isopropylpiperidin-4-yl)carbamate], the IC50 [1] is reported as 0.001 to 10 µM and the IC50 (human CD73) is reported as 0.001 to 10 µM.
`O=C(NC1CCN(c2ncccn2)CC1)O[C@@H]1CCN(c2cn[nH]c(=O)c2Cl)C1` [P-0123, (R)-1-(5-chloro-6-oxo-1,6-dihydropyridazin-4-yl)pyrrolidin-3-yl (1-(pyrimidin-2-yl)piperidin-4-yl)carbamate] was tested, and the IC50 [1] was 0.001 to 10 µM and the IC50 (human CD73) was 0.001 to 10 µM.
Compound `CC(C)(C)OC(=O)NC1CCC(NC(=O)O[C@@H]2CCN(c3cn[nH]c(=O)c3Cl)C2)CC1` (stereo partly drawn) [P-0124, (R)-tert-butyl (1-(5-chloro-6-oxo-1,6-dihydropyridazin-4-yl)pyrrolidin-3-yl) cyclohexane-1,4-diyldicarbamate] has an IC50 [1] of 0.001 to 10 µM and an IC50 (human CD73) of 0.001 to 10 µM.
`NC1CCC(NC(=O)O[C@@H]2CCN(c3cn[nH]c(=O)c3Cl)C2)CC1` (stereo partly drawn) [P-0125, (R)-1-(5-chloro-6-oxo-1,6-dihydropyridazin-4-yl)pyrrolidin-3-yl (4-aminocyclohexyl)carbamate] was tested, and the IC50 [1] was 0.001 to 10 µM and the IC50 (human CD73) was 0.001 to 10 µM.
`N#Cc1c(N2CC[C@@H](OC(=O)NC3CCCCC3)C2)cn[nH]c1=O` [P-0127, (R)-1-(5-cyano-6-oxo-1,6-dihydropyridazin-4-yl)pyrrolidin-3-yl cyclohexylcarbamate] showed an IC50 [1] of 0.001 to 10 µM and an IC50 (human CD73) of 0.001 to 10 µM.
With `CS(=O)(=O)N[C@H]1CC[C@@H](NC(=O)O[C@@H]2CCN(c3cn[nH]c(=O)c3Cl)C2)CC1` [P-0128, (R)-1-(5-chloro-6-oxo-1,6-dihydropyridazin-4-yl)pyrrolidin-3-yl ((1s,4S)-4-(methylsulfonamido)cyclohexyl)carbamate] the IC50 [1] was 0.001 to 10 µM and the IC50 (human CD73) was 0.001 to 10 µM.
With `CS(=O)(=O)N[C@H]1CC[C@H](NC(=O)O[C@@H]2CCN(c3cn[nH]c(=O)c3Cl)C2)CC1` [P-0129, (R)-1-(5-chloro-6-oxo-1,6-dihydropyridazin-4-yl)pyrrolidin-3-yl ((1r,4R)-4-(methylsulfonamido)cyclohexyl)carbamate] the IC50 [1] was 0.001 to 10 µM and the IC50 (human CD73) was 0.001 to 10 µM.
`O=C(NC1CCCCC1)O[C@@H]1CCN(c2cnn(-c3cccc(C(=O)O)c3)c(=O)c2Cl)C1` [P-0130, (R)-3-(5-chloro-4-(3-((cyclohexylcarbamoyl)oxy)pyrrolidin-1-yl)-6-oxopyridazin-1(6H)-yl)benzoic acid] gave an IC50 [1] of 10 to 100 µM and an IC50 (human CD73) of 10 to 100 µM.
`O=C(N[C@H]1CC[C@H](O)CC1)O[C@@H]1CCN(c2cn[nH]c(=O)c2Cl)C1` [P-0131, (R)-1-(5-chloro-6-oxo-1,6-dihydropyridazin-4-yl)pyrrolidin-3-yl ((1r,4R)-4-hydroxycyclohexyl)carbamate] showed an IC50 [1] of 0.001 to 10 µM and an IC50 (human CD73) of 0.001 to 10 µM.
Compound `O=C(N[C@H]1CCCOC1)O[C@@H]1CCN(c2cn[nH]c(=O)c2Cl)C1` [P-0132, (R)-1-(5-chloro-6-oxo-1,6-dihydropyridazin-4-yl)pyrrolidin-3-yl ((S)-tetrahydro-2H-pyran-3-yl)carbamate] has an IC50 [1] of 0.001 to 10 µM and an IC50 (human CD73) of 0.001 to 10 µM.
`CC1(NC(=O)O[C@@H]2CCN(c3cn[nH]c(=O)c3Cl)C2)CCOCC1` [P-0133, (R)-1-(5-chloro-6-oxo-1,6-dihydropyridazin-4-yl)pyrrolidin-3-yl (4-methyltetrahydro-2H-pyran-4-yl)carbamate] was tested, and the IC50 [1] was 0.001 to 10 µM and the IC50 (human CD73) was 0.001 to 10 µM.
Work on `O=C(NC1(C(F)(F)F)CC1)O[C@@H]1CCN(c2cn[nH]c(=O)c2Cl)C1` [P-0134, (R)-1-(5-chloro-6-oxo-1,6-dihydropyridazin-4-yl)pyrrolidin-3-yl (1-(trifluoromethyl)cyclopropyl) carbamate] yielded an IC50 [1] of 0.001 to 10 µM and an IC50 (human CD73) of 0.001 to 10 µM.
Work on `O=C(N[C@@H]1CCN(c2cn[nH]c(=O)c2Cl)C1)O[C@@H]1CCN(c2cn[nH]c(=O)c2Cl)C1` [P-0135, (R)-1-(5-chloro-6-oxo-1,6-dihydropyridazin-4-yl)pyrrolidin-3-yl ((R)-1-(5-chloro-6-oxo-1,6-dihydropyridazin-4-yl)pyrrolidin-3-yl)carbamate] yielded an IC50 [1] of 0.001 to 10 µM and an IC50 (human CD73) of 0.001 to 10 µM.
For `O=C(N[C@H]1CCN(c2cn[nH]c(=O)c2Cl)C1)O[C@@H]1CCN(c2cn[nH]c(=O)c2Cl)C1` [P-0136, (R)-1-(5-chloro-6-oxo-1,6-dihydropyridazin-4-yl)pyrrolidin-3-yl ((S)-1-(5-chloro-6-oxo-1,6-dihydropyridazin-4-yl)pyrrolidin-3-yl)carbamate], the IC50 [1] was 0.001 to 10 µM and the IC50 (human CD73) was 0.001 to 10 µM.
With `Cn1cc(C2(NC(=O)O[C@@H]3CCN(c4cn[nH]c(=O)c4Cl)C3)CC2)cn1` [P-0137, (R)-1-(5-chloro-6-oxo-1,6-dihydropyridazin-4-yl)pyrrolidin-3-yl (1-(1-methyl-1H-pyrazol-4-yl)cyclopropyl)carbamate] the IC50 [1] was 0.001 to 10 µM and the IC50 (human CD73) was 0.001 to 10 µM.
With `CC1(OC(=O)NC2CCC(F)(F)CC2)CCN(c2cn[nH]c(=O)c2Cl)C1` (centres unmarked) [P-0138, 1-(5-chloro-6-oxo-1,6-dihydropyridazin-4-yl)-3-methylpyrrolidin-3-yl (4,4-difluorocyclohexyl)carbamate] the IC50 [1] was 0.001 to 10 µM and the IC50 (human CD73) was 0.001 to 10 µM.
For `C[C@H]1CN(c2cn[nH]c(=O)c2Cl)C[C@@H]1OC(=O)NC1CCC(F)(F)CC1` [P-0139, (3R,4S)-1-(5-chloro-6-oxo-1,6-dihydropyridazin-4-yl)-4-methylpyrrolidin-3-yl (4,4-difluorocyclohexyl)carbamate], the IC50 [1] was 0.001 to 10 µM and the IC50 (human CD73) was 0.001 to 10 µM.
`C[C@@H]1CN(c2cn[nH]c(=O)c2Cl)C[C@@H]1OC(=O)NC1CCC(F)(F)CC1` [P-0140, (3R,4R)-1-(5-chloro-6-oxo-1,6-dihydropyridazin-4-yl)-4-methylpyrrolidin-3-yl (4,4-difluorocyclohexyl)carbamate] showed an IC50 [1] of 0.001 to 10 µM and an IC50 (human CD73) of 10 to 100 µM.
